Reference: patent US12257243B2, “5-hydroxy-7-oxabicyclo[2.2.1]heptane-2-carboxamide derivatives for inducing chondrogenesis for treating joint damage” (NOVARTIS AG, priority 2018, dated 2025)
Where two headings read alike, the source gives them in different places.

Target: ALP in normal human articular chondrocytes (NHACs)
Experiment: Alkaline Phosphatase (ALP) activity assay (staining and quantitation) in NHACs, prevention of chondrocyte hypertrophy
Assay type: cell-based
Settings: human IL-1 beta 10 ng/mL, 12 days; for IC50: Fast Blue RR staining, high content imaging, read-out: ALP in NHAC IC50; for ALP in NHAC (% Efficacy) / Emax: value in parentheses; for Emax: read-out: ALP in NHAC (% Efficacy)
Method: The compounds of the present invention were evaluated in the Alkaline Phosphatase (ALP) activity assay to determine the ability of the compounds to prevent chondrocyte hypertrophy in normal human articular chondrocytes (NHACs).
Normal human articular chondrocytes (NHACs) were purchased from PromoCell (Heidelberg, Germany) and grown in Chondrocyte Growth Medium (CGM; Lonza, Walkersville, Md.).
NHACs were expanded in Chondrocyte Growth Medium (CGM) from Lonza until they reached a 60-80% confluency. To initiate differentiation, 7,500 cells were plated/well with indicated test compound dose in 384-well Cell Carrier Ultra plates (Perkin Elmer) with DMEM (SH30022—HyClone) containing 10% FBS (35-015-CV—Corning), 1% Pen/Strep antibiotics (SV30010—HyClone), and 1% Normocin (50 mg/mL—InvivoGen). Cells with test compounds were incubated at 37° C., 5% CO2 for 5 hours and then added human IL-1 beta (AF-200-1B—Peprotech) to each well at a final concentration of 10 ng/mL and incubated at 37° C., 5% CO2 for 12 days.
To detect the presence of hypertrophic cells, NHACs were fixed with 4% paraformaldehyde and Hoechst 33342 (Invitrogen) dye for 30 minutes, rinsed in PBS, then stained with Fast Blue RR Salt (F0500—Sigma) with Naphthol AS-MX Phosphate Alkaline Solution, 0.25% (855—Sigma-Aldrich).
The staining was imaged by fluorescent microscopy, using the 561 nm wavelength, and/or quantified by high content imaging with the Image press Confocal (Molecular Devices, Sunnyvale, Calif.). Data analyses were performed with a customized multiwavelength cell-scoring application.

Compound | IC50 (Chondrocyte, 288 h) [µM] | Emax (Chondrocyte, 288 h) [%] | further results
Cn1nc(C(F)(F)F)cc1[C@H]1[C@H]2O[C@H](C[C@@H]2O)[C@@H]1C(=O)Nc1cc(C(F)(F)F)ccc1C#N (single isomer, unassigned) [Example 72b, (1R,2R,3S,4R,5S)—N-(2-cyano-5-(trifluoromethyl)phenyl)-5-hydroxy-3-(1-methyl-3-(trifluoromethyl)-1H-pyrazol-5-yl)-7-oxabicyclo[2.2.1]heptane-2-carboxamide or (1S,2S,3R,4S,5R)—N-(2-cyano-5-(trifluoromethyl)phenyl)-5-hydroxy-3-(1-methyl-3-(trifluoromethyl)-1-pyrazol-5-yl)-7-oxabicyclo[2.2.1]heptane-2-carboxamide] | – | – | IC50 (listed as 72?): 1.8 µM; ALP in NHAC (% Efficacy) (listed as 72?): 88%
Cn1cc([C@H]2[C@H]3O[C@H](C[C@@H]3O)[C@@H]2C(=O)Nc2cc(C(F)(F)F)ccc2C#N)c(C(F)(F)F)n1 (single isomer, unassigned) [Example 49a, (1R,2R,3S,4R,5N-(2-cyano-5-(trifluoromethyl)phenyl)-5-hydroxy-3-(1-methyl-3-(trifluoromethyl)-1H-pyrazol-4-yl)-7-oxabicyclo[2.2.1]heptane-2-carboxamide or (1S,2S,3R,4S,5R)—N-(2-cyano-5-(trifluoromethyl)phenyl)-5-hydroxy-3-(1-methyl-3-(trifluoromethyl)-1H-pyrazol-4-yl)-7-oxabicyclo[2.2.1]heptane-2-carboxamide] | – | – | IC50: 1.9 µM; ALP in NHAC (% Efficacy): 101%
CC(C)n1cc([C@H]2[C@H]3O[C@H](C[C@@H]3O)[C@@H]2C(=O)Nc2cccc(C(F)(F)F)c2)c(C(F)(F)F)n1 (racemic) [Example 59, rac-(1R,2R,3S,4R,5S)-5-hydroxy-3-(1-isopropyl-3-(trifluoromethyl)-1H-pyrazol-4-yl)-N-(3-(trifluoromethyl)phenyl)-7-oxabicyclo[2.2.1]heptane-2-carboxamide] | 14 | 70 | –
O=C(Nc1ccc(C(F)(F)F)c(F)c1)[C@@H]1[C@@H](c2cccc(C(F)(F)F)c2)[C@H]2O[C@@H]1C[C@@H]2O (racemic) [Example 3, rac-(1R,2R,3S,4R,5S)—N-(3-fluoro-4-(trifluoromethyl)phenyl)-5-hydroxy-3-(3-(trifluoromethyl)phenyl)-7-oxabicyclo[2.2.1]heptane-2-carboxamide] | 12 | 77 | –
COc1ccc(NC(=O)[C@@H]2[C@@H](c3cn(C)nc3C(F)(F)F)[C@H]3O[C@@H]2C[C@@H]3O)cc1C(F)(F)F (racemic) [Example 31, rac-(1R,2R,3S,4R,5S)-5-hydroxy-N-(4-methoxy-3-(trifluoromethyl)phenyl)-3-(1-methyl-3-(trifluoromethyl)-1H-pyrazol-4-yl)-7-oxabicyclo[2.2.1]heptane-2-carboxamide] | 3.1 | 102 | –
COc1cc([C@H]2[C@H]3O[C@H](C[C@@H]3O)[C@@H]2C(=O)Nc2cc(C(F)(F)F)ccc2C#N)ccn1 (racemic) [Example 78, rac-(1R,2R,3S,4R,5)-N-(2-cyano-5-trifluoromethyl)phenyl)-5-hydroxy-3-(2-methoxypyridin-4-yl)-7-oxabicyclo[2.2.1]heptane-2-carboxamide] | 0.055 | 74 | –
Cn1cc([C@H]2[C@H]3O[C@H](C[C@@H]3O)[C@@H]2C(=O)Nc2ccc(Cl)c(C(F)(F)F)c2)c(C(F)(F)F)n1 (racemic) [Example 53, rac-(1R,2R,3S,4R,5S)—N-(4-chloro-3-(trifluoromethyl)phenyl)-5-hydroxy-3-(1-methyl-3-(trifluoromethyl)-1H-pyrazol-4-yl)-7-oxabicyclo[2.2.1]heptane-2-carboxamide] | 7.2 | 86 | –
Cn1nc(C(F)(F)F)cc1[C@H]1[C@H]2O[C@H](C[C@@H]2O)[C@@H]1C(=O)Nc1cc(C(F)(F)F)ccn1 (racemic) [Example 74, rac-(1R,2R,3,4R,5)-5-hydroxy-3-(1-methy-3-(trifluoromethyl)-1H-pyrazol-5-yl)-N-(4-(trifluoromethyl)pyridin-2-yl-7-oxabicyclo[2.2.1]heptane-2-carboxamide] | 11 | 64 | –
COc1cc([C@H]2[C@H]3O[C@H](C[C@@H]3O)[C@@H]2C(=O)Nc2ccc(C(F)(F)F)cc2)ccn1 (racemic) [Example 67, rac-(1R,2R,3S,4R,5S)-5-hydroxy-3-(2-methoxypyridin-4-yl)-N-(4-(trifluoromethyl)phenyl)-7-oxabicyclo[2.2.1]heptane-2-carboxamide] | > 30 | 27 | –
COc1cc([C@H]2[C@H]3O[C@H](C[C@@H]3O)[C@@H]2C(=O)Nc2cc(C(F)(F)F)ccc2F)ccn1 (racemic) [Example 76, rac-(1R,2R,3S,4R,5S)—N-(2-fluoro-5-(trifluoromethyl)phenyl)-5-hydroxy-3-(2-methoxypyridin-4-yl)-7-oxabicyclo[2.2.1]heptane-2-carboxamide] | 7.2 | 53 | –
N#Cc1ccc(NC(=O)[C@@H]2[C@@H](c3cccc(C(F)(F)F)c3)[C@H]3O[C@@H]2C[C@@H]3O)cc1C(F)(F)F (racemic) [Example 46, rac-(1R,2R,3S,4R,5S)—N-(4-cyano-3-trifluoromethyl)phenyl)-5-hydroxy-3-(3-(trifluoromethyl)phenyl)-7-oxabicyclo[2.2.1]heptane-2-carboxamide] | 14 | 50 | –
Cn1cc([C@H]2[C@H]3O[C@H](C[C@@H]3O)[C@@H]2C(=O)Nc2cc(C(F)(F)F)ccn2)c(C(F)(F)F)n1 (single isomer, unassigned) [Example 38b, (1R,2R,3S,4R,5S)-5-hydroxy-3-(1-methyl-3-(trifluoromethyl)-1H-pyrazol-4-yl)-N-(4-(trifluoromethyl)pyridin-2-yl)-7-oxabicyclo[2.2.1]heptane-2-carboxamide or (1S,2S,3R,4S,5R)-5-hydroxy-3-(1-methyl-3-(trifluoromethyl)-1H-pyrazol-4-yl)-N-(4-(trifluoromethyl)pyridin-2-yl)-7-oxabicyclo[2.2.1]heptane-2-carboxamide] | – | – | IC50: > 30 µM; ALP in NHAC (% Efficacy): 27%
Cn1cc([C@H]2[C@H]3O[C@H](C[C@@H]3O)[C@@H]2C(=O)Nc2cc(C(F)(F)F)ccn2)c(C(F)(F)F)n1 (single isomer, unassigned) [Example 38a, (1R,2R,3S,4R,5S)-5-hydroxy-3-(1-methyl-3-(trifluoromethyl)-1H-pyrazol-4-yl)-N-(4-(trifluoromethyl)pyridin-2-yl)-7-oxabicyclo[2.2.1]heptane-2-carboxamide or (1S,2S,3R,4S,5R)-5-hydroxy-3-(1-methyl-3-(trifluoromethyl)-1H-pyrazol-4-yl)-N-(4-(trifluoromethyl)pyridin-2-yl)-7-oxabicyclo[2.2.1]heptane-2-carboxamide] | – | – | IC50: 5.9 µM; ALP in NHAC (% Efficacy): 81%
Cn1nc(C(F)(F)F)cc1[C@H]1[C@H]2O[C@H](C[C@@H]2O)[C@@H]1C(=O)Nc1cc(C(F)(F)F)ccc1F (racemic) [Example 75, rac-(1R,2R,3S,4R,5S)—N-(2-fluoro-S-trifluoromethyl)phenyl)-5-hydroxy-3-(1-methyl-3-(trifluoromethyl)-1H-pyrazol-5-yl)-7-oxabicyclo[2.2.1]heptane-2-carboxamide] | > 30 | 46 | –
CC(C)n1cc([C@H]2[C@H]3O[C@H](C[C@@H]3O)[C@@H]2C(=O)Nc2cc(C(F)(F)F)ccc2C#N)c(C(F)(F)F)n1 (racemic) [Example 84, rac-(1R,2R,3S,4R,5S)—N-(2-cyano-5-(trifluoromethyl)phenyl)-5-hydroxy-3-(1-isopropyl-3-(trifluoromethyl)-1H-pyrazol-4-yl)-7-oxabicyclo[2.2.1]heptane-2-carboxamide] | 0.29 | 86 | –
COc1ccc(NC(=O)[C@@H]2[C@@H](c3cccc(C(F)(F)F)c3)[C@H]3O[C@@H]2C[C@@H]3O)cc1C(F)(F)F (racemic) [Example 20, rac-(1R,2R,3S,4R,5S)-5-hydroxy-N-(4-methoxy-3-trifluoromethyl)phenyl)-3-(3-(trifluoromethyl)phenyl)-7-oxabicyclo[2.2.1]heptane-2-carboxamide] | 14 | 102 | –
Cc1c(NC(=O)[C@@H]2[C@@H](c3cccc(C(F)(F)F)c3)[C@H]3O[C@@H]2C[C@@H]3O)cccc1C(F)(F)F (racemic) [Example 11, rac-(1R,2R,3S,4R,5S)-5-hydroxy-N-(2-methyl-3-(trifluoromethyl)phenyl)-3-(3-(trifluoromethyl)phenyl)-7-oxabicyclo[2.2.1]heptane-2-carboxamide] | > 30 | 33 | –
